Test results as given in ChEMBL document CHEMBL3352258 (J Med Chem, 2014).
Converted amounts (≈) assume the structure as drawn. The source made the active and inactive calls. No cut-off for these calls is given here.

What was measured:
[1] = system: Mus musculus; assay: Antidiabetic activity in db/db mouse assessed as reduction in glucose AUC at 300 mg/kg, po qd administered 1 hr prior glucose challenge measured after 21 days by oral glucose tolerance test relative to control; assay type: functional; design: scale not given: the % may be the effect or the level left
[2] = system: Mus musculus; assay: Antidiabetic activity in db/db mouse assessed as HbA1C level at 300 mg/kg, po qd administered 1 hr prior glucose challenge measured after 21 days by oral glucose tolerance test (reference value: 2.8%); assay type: functional
[3] = Inhibition of cytochrome P450 (unknown origin); assay type: ADME, Homo sapiens
[4] = system: Rattus norvegicus; assay: Stimulation of glucose-induced GLP-1 release in cannulated Sprague-Dawley rat at 0.3 mg/kg, po administered 1 hr prior glucose challenge relative to vehicle-treated control; assay type: functional, organism-based; design: dose 0.3 mg/kg
[5] = Half life in mouse; assay type: ADME, organism-based; conditions: in vivo
[6] = system: Mus musculus; assay: Antidiabetic activity in db/db mouse assessed as reduction in blood glucose level at 3 mg/kg, po qd administered 1 hr prior glucose challenge measured after 21 days by oral glucose tolerance test; assay type: functional; design: scale not given: the % may be the effect or the level left
[7] = Solubility of the compound in 50% PEG400/ 50% PBS solution; assay type: physicochemical
[8] = system: Mus musculus; assay: Antidiabetic activity in C57BL/6J mouse assessed as reduction in glucose AUC at 1 mg/kg, po by oral glucose tolerance test relative to vehicle-treated control; assay type: functional; design: scale not given: the % may be the effect or the level left
[9] = system: Mus musculus; assay: Antidiabetic activity in C57BL/6J mouse assessed as reduction in glucose AUC at 0.3 mg/kg, po by oral glucose tolerance test relative to vehicle-treated control; assay type: functional; design: scale not given: the % may be the effect or the level left
[10] = system: Mus musculus; assay: Antidiabetic activity in db/db mouse assessed as increase in fasting plasma insulin level at 0.01 to 0.3 mg/kg, po qd administered 1 hr prior glucose challenge measured after 21 days; assay type: functional, organism-based
[11] = species: Oryctolagus cuniculus; assay: Toxicity in rabbit at plasma concentration 20 uM by electrophysiology study; assay type: organism-based; conditions: in vivo
[12] = system: Rattus norvegicus; assay: Half life in Sprague-Dawley rat at 5 mg/kg, po; assay type: ADME, organism-based; design: dose 5 mg/kg, route oral; conditions: in vivo
[13] = system: Homo sapiens; assay: Antidiabetic activity in po dosed human assessed as increase in 24 hrs GLP1 AUC measured on day 1; assay type: functional, organism-based
[14] = target: T1, Nuclear receptor subfamily 1 group I member 2 (Homo sapiens, UniProt O75469); assay: Activation of PXR (unknown origin); assay type: ADME
T1 sequence (O75469 whole entry): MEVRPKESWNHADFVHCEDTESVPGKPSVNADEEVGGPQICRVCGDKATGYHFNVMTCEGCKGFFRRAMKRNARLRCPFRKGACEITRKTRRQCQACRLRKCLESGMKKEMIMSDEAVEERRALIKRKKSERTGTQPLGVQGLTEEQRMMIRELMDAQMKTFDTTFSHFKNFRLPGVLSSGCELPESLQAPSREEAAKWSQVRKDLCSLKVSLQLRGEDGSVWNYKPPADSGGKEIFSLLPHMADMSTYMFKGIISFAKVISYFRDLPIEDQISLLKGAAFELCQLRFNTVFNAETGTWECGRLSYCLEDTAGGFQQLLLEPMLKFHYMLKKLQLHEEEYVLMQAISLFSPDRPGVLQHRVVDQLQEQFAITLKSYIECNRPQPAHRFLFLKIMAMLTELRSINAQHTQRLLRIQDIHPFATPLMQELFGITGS

[15] = system: HepG2; assay: Cytotoxicity against human HepG2 cells at 40 uM; assay type: cell-based; conditions: hepg2, 40 µM
[16] = system: Homo sapiens; assay: Antidiabetic activity in human assessed as increase in total GLP1 AUC at 0.6 mg, po measured on day 1; assay type: functional
[17] = Half life in human liver microsomes; assay type: ADME
[18] = system: Salmonella typhimurium; assay: Genotoxicity in Salmonella typhimurium; assay type: toxicity, organism-based; conditions: salmonella enterica subsp. enterica serovar typhimurium
[19] = system: Mus musculus; assay: Antidiabetic activity in C57BL/6J mouse assessed as reduction in glucose AUC at 0.03 mg/kg, po by oral glucose tolerance test relative to vehicle-treated control; assay type: functional; design: scale not given: the % may be the effect or the level left
[20] = Oral bioavailability in Sprague-Dawley rat at 5 mg/kg administered as HMPC SDD formulation; assay type: ADME, organism-based; conditions: in vivo
[21] = Protein binding in human plasma; assay type: ADME, cell-free; conditions: read-out: PPB (converted)
[22] = system: Rattus norvegicus; assay: Tmax in Sprague-Dawley rat at 5 mg/kg, po; assay type: ADME, organism-based; design: dose 5 mg/kg, route oral; conditions: in vivo
[23] = system: Homo sapiens; assay: Toxicity in human at 0.1 to 120 mg, po; assay type: organism-based; conditions: in vivo
[24] = Clearance in Sprague-Dawley rat at 1 mg/kg, iv; assay type: ADME, organism-based; design: dose 1 mg/kg, route intravenous; conditions: in vivo
[25] = system: Rattus norvegicus; assay: Cmax in Sprague-Dawley rat at 5 mg/kg, po; assay type: ADME, organism-based; design: dose 5 mg/kg, route oral; conditions: in vivo
[26] = system: Homo sapiens; assay: Antidiabetic activity in human assessed as reduction in 24 hrs glucose AUC at 0.1 to 120 mg, po measured on day 1; assay type: functional, organism-based
[27] = system: Homo sapiens; assay: Antidiabetic activity in human assessed as increase in total GLP1 AUC at 10 mg, po measured on day 1; assay type: functional
[28] = system: Rattus norvegicus; assay: Stimulation of glucose-induced GLP-1 release in cannulated Sprague-Dawley rat at 0.3 mg/kg, po administered 1 hr prior glucose challenge in presence of DPP4 inhibitor relative to vehicle-treated control; assay type: functional, organism-based; design: dose 0.3 mg/kg
[29] = system: Mus musculus; assay: Antidiabetic activity in db/db mouse assessed as reduction in blood glucose level at 30 mg/kg, po qd administered 1 hr prior glucose challenge measured after 21 days by oral glucose tolerance test; assay type: functional; design: scale not given: the % may be the effect or the level left
[30] = system: Mus musculus; assay: Antidiabetic activity in db/db mouse assessed as reduction in blood glucose level at 0.01 mg/kg, po qd administered 1 hr prior glucose challenge measured after 21 days by oral glucose tolerance test; assay type: functional; design: scale not given: the % may be the effect or the level left
[31] = system: Mus musculus; assay: Antidiabetic activity in C57BL/6J mouse assessed as reduction in glucose AUC at 0.1 mg/kg, po by oral glucose tolerance test relative to vehicle-treated control; assay type: functional; design: scale not given: the % may be the effect or the level left
[32] = target: T2, Glucose-dependent insulinotropic receptor (Homo sapiens, UniProt Q8TDV5); assay: Agonist activity at human GPR119
T2 sequence (Q8TDV5 whole entry): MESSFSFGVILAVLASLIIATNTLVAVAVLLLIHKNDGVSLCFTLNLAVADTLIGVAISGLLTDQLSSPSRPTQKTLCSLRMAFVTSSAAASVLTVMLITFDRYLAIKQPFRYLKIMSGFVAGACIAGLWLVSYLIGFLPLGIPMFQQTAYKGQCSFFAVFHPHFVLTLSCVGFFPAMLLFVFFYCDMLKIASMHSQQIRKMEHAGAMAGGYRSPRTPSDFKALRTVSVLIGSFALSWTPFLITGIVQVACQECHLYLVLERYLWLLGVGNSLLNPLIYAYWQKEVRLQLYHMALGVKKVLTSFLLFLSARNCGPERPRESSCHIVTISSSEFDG

[33] = Volume of distribution at steady state in Sprague-Dawley rat at 1 mg/kg, iv; assay type: ADME, organism-based; design: dose 1 mg/kg, route intravenous; conditions: in vivo, read-out: Vdss
[34] = system: Cynomolgus monkey; assay: Toxicity in cynomolgus monkey at plasma concentration 20 uM by electrophysiology study; assay type: organism-based, Macaca fascicularis; conditions: in vivo
[35] = Terminal half life in human at 0.1 to 120 mg, po; assay type: ADME, organism-based; conditions: in vivo, read-out: beta t1/2 (converted)
[36] = Oral bioavailability in Sprague-Dawley rat at 5 mg/kg administered as suspension; assay type: ADME, organism-based; conditions: in vivo
[37] = system: Rattus norvegicus; assay: AUC (total) in Sprague-Dawley rat at 5 mg/kg, po; assay type: ADME, organism-based, Plasma; design: dose 5 mg/kg, route oral; conditions: in vivo
[38] = Solubility of the compound at pH 6.5; assay type: physicochemical; conditions: buffer
[39] = system: Mus musculus; assay: Antidiabetic activity in db/db mouse assessed as reduction in blood glucose level at 0.03 mg/kg, po qd administered 1 hr prior glucose challenge measured after 21 days by oral glucose tolerance test; assay type: functional; design: scale not given: the % may be the effect or the level left
[40] = Cmax in C57BL/6 mouse at 30 mg/kg, po after 2 hrs; assay type: ADME, organism-based; design: dose 30 mg/kg, route oral; conditions: in vivo
[41] = target: hERG (KCNH2) (Homo sapiens, UniProt Q12809); assay: Inhibition of human ERG at 10 uM by patch clamp assay
[42] = system: Mus musculus; assay: Antidiabetic activity in db/db mouse assessed as reduction in glucose AUC at 3 mg/kg, po qd administered 1 hr prior glucose challenge measured after 21 days by oral glucose tolerance test relative to control; assay type: functional; design: scale not given: the % may be the effect or the level left
[43] = Permeability of the compound by PAMPA assay; assay type: ADME; conditions: read-out: permeability
[44] = Terminal half life in C57BL/6 mouse at 30 mg/kg, po; assay type: ADME, organism-based; design: dose 30 mg/kg, route oral; conditions: in vivo, read-out: beta t1/2 (converted)
[45] = system: Mus musculus; assay: Antidiabetic activity in db/db mouse assessed as reduction in HbA1C level at 0.3 mg/kg, po qd administered 1 hr prior glucose challenge measured after 21 days by oral glucose tolerance test relative to control; assay type: functional; design: scale not given: the % may be the effect or the level left
[46] = system: Mus musculus; assay: Antidiabetic activity in db/db mouse assessed as HbA1C level at 30 mg/kg, po qd administered 1 hr prior glucose challenge measured after 21 days by oral glucose tolerance test (reference value: 2.8%); assay type: functional
[47] = Protein binding in rat plasma; assay type: ADME, cell-free; conditions: read-out: PPB
[48] = Permeability of the compound across human Caco2 cells; assay type: ADME, cell-based; conditions: Caco-2, read-out: permeability
[49] = Solubility of the compound at pH 1; assay type: physicochemical; conditions: buffer
[50] = system: Mus musculus; assay: Antidiabetic activity in db/db mouse assessed as reduction in blood glucose level at 0.3 mg/kg, po qd administered 1 hr prior glucose challenge measured after 21 days by oral glucose tolerance test; assay type: functional; design: scale not given: the % may be the effect or the level left
[51] = system: Mus musculus; assay: Antidiabetic activity in db/db mouse assessed as reduction in HbA1C level at 3 mg/kg, po qd administered 1 hr prior glucose challenge measured after 21 days by oral glucose tolerance test relative to control; assay type: functional; design: scale not given: the % may be the effect or the level left
[52] = system: Mus musculus; assay: Antidiabetic activity in db/db mouse assessed as reduction in glucose AUC at 30 mg/kg, po qd administered 1 hr prior glucose challenge measured after 21 days by oral glucose tolerance test relative to control; assay type: functional; design: scale not given: the % may be the effect or the level left
[53] = AUC in C57BL/6 mouse at 30 mg/kg, po; assay type: ADME, organism-based; design: dose 30 mg/kg, route oral; conditions: plasma
[54] = target: T3, Glucose-dependent insulinotropic receptor (Homo sapiens) (UniProt Q8TDV5); assay: Intrinsic activity at human GPR119 relative to control
T3 sequence (whole entry): T2 sequence (Q8TDV5 whole entry)

Sequence of hERG (KCNH2) (Q12809 whole entry): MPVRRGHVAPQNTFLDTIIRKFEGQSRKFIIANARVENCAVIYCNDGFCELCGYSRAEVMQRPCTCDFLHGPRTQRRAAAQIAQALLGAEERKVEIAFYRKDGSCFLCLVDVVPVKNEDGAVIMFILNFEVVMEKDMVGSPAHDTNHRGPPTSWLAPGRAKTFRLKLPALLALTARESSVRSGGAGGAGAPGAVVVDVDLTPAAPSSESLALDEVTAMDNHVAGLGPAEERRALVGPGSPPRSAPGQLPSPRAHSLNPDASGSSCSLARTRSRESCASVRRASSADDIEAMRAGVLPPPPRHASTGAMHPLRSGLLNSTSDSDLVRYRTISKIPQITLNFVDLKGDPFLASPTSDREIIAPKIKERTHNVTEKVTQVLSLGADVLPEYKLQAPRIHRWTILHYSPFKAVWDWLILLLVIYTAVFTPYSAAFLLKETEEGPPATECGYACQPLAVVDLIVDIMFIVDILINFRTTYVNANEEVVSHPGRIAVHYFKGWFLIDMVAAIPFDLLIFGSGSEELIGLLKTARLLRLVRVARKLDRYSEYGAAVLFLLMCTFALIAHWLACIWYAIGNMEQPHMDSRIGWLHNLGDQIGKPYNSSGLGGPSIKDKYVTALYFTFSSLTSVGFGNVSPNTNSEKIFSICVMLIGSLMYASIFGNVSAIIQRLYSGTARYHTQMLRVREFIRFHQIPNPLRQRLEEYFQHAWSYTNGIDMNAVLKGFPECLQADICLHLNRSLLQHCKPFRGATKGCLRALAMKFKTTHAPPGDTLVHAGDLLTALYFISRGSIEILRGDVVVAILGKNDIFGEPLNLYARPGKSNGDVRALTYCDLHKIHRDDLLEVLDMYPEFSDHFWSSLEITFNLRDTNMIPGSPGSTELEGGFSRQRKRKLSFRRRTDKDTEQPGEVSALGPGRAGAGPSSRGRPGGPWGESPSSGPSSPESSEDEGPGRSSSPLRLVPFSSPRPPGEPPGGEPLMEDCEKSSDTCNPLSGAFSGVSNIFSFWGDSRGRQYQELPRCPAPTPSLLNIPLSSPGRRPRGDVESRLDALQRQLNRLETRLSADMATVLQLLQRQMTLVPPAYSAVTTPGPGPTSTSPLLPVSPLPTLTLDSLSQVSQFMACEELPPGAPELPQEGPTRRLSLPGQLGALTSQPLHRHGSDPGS

CN(C)C(=N)NC(=N)N [METFORMIN]
Activity [1]: 83%
Activity [2]: 1.4%

CS(=O)(=O)c1ccc(-n2cc(Cl)c(OC3CCN(c4ncc(Cl)cn4)CC3)cc2=O)c(F)c1 [BMS-903452]
IC50 [3]: > 40 µM
Activity [4]: Active
half-life [5]: 15 min
Activity [6]: 13%
solubility [7]: 41 µg/mL (≈ 79.9 µM)
Activity [8]: 40%
Activity [9]: 39%
Activity [10]: Active
Activity [11]: Non-toxic
t1/2 [12]: 22 min
Activity [13]: Dose-dependent effect
EC50 [14]: > 50 µM
Activity [15]: Non-toxic
Activity [16]: 20%
half-life [17]: 84 min
Activity [18]: Non-toxic
Activity [19]: 14%
bioavailability [20]: 87%
fraction unbound [21]: 0.005
Tmax [22]: 4 h
Activity [23]: Non-toxic
clearance [24]: 1.5 mL/min/kg
Cmax [25]: 2700 nM
Activity [26]: inactive
Activity [27]: 50%
Activity [28]: Active
Activity [29]: 38%
Activity [30]: 18%
Activity [31]: 37%
EC50 [32]: 14 nM
Vd [33]: 2.2 L/kg
Activity [34]: Non-toxic
half-life [35]: 2160 min
bioavailability [36]: 33%
AUC [37]: 95 µM·h
solubility [38]: < 1 µg/mL
Activity [39]: 36%

CCCc1cnc(N2CCC(Oc3ccn(-c4ccc(S(C)(=O)=O)cc4F)c(=O)c3)CC2)nc1
IC50 [3]: > 40 µM
Cmax [40]: 38.6 µM
inhibition at 10 µM [41]: 47%
Activity [42]: 32%
EC50 [14]: > 50 µM
Activity [15]: Non-toxic
Papp [43]: 32 ×10⁻⁶ cm/s
half-life [44]: 144 min
Activity [45]: 0.6%
Activity [46]: 1.4%
fraction unbound [47]: 0.01
Papp [48]: 22 ×10⁻⁶ cm/s
solubility [49]: 630 µg/mL (≈ 1290 µM)
Activity [50]: 16%
EC50 [32]: 18 nM
Activity [51]: 0.4%
Activity [52]: 38%
AUC [53]: 245 µM·h
Intrinsic activity [54]: 1
